3 compounds from the kinase profiling compilation of Christmann-Franck et al. (2016) can be followed below.

TXK (human), sequence (P42681 whole entry, looked up): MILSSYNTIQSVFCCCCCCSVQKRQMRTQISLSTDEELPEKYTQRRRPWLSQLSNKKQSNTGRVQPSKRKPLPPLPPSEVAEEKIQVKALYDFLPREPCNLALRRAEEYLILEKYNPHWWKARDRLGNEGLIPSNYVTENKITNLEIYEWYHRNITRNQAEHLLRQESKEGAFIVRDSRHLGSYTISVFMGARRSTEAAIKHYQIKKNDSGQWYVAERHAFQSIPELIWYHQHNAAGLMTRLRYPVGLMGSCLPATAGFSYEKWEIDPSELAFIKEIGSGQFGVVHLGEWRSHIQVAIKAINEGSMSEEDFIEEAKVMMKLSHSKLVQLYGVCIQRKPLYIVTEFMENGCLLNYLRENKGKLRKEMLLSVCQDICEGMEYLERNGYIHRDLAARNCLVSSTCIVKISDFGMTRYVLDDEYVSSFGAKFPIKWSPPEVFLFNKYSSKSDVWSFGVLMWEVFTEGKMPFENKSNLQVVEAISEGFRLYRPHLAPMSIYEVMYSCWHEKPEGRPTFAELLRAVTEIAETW
CHEK2 (human), sequence (O96017 whole entry, looked up): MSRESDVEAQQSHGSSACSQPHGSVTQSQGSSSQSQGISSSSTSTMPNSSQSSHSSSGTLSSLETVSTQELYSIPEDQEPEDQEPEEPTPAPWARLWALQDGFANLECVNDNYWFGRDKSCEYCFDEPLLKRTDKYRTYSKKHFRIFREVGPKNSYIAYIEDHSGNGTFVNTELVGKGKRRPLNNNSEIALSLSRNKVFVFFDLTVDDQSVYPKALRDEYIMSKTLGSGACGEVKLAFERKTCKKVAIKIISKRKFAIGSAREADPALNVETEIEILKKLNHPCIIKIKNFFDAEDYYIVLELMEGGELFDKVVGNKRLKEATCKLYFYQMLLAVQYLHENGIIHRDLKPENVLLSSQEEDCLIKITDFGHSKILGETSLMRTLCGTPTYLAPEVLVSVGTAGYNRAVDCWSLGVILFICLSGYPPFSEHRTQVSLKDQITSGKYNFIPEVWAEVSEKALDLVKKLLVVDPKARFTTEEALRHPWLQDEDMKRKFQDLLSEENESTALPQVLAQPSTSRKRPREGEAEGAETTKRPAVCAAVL
RPS6KA1 KD1 KD2 (human), sequence (Q15418 whole entry, looked up): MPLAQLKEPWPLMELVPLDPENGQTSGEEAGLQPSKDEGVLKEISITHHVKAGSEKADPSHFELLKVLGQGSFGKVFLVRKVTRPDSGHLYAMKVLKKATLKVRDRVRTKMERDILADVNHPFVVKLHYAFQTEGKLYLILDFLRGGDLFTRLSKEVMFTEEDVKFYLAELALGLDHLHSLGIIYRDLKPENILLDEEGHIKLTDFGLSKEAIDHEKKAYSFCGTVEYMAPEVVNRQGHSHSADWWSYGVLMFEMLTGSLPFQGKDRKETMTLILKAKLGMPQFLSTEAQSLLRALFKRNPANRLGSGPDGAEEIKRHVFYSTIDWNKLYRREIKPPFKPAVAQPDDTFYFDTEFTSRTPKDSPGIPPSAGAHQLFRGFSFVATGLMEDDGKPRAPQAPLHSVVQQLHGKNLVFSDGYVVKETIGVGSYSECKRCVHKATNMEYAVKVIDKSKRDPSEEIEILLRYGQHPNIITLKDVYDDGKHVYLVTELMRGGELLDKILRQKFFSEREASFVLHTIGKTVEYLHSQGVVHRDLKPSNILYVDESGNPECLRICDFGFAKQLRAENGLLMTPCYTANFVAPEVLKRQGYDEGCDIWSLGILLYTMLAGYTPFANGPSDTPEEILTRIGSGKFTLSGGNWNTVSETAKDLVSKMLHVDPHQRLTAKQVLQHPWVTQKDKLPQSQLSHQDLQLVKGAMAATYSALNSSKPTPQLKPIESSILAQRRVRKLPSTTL

One assay deals with CSNK1G1 (human) (UniProt Q9HCP0). The experiment in a line: radiometric filter-binding kinase assay, Kinase HotSpot. The settings on record: compound 0.5 µM; ATP 10 µM.
CSNK1G1 (human), sequence (Q9HCP0 whole entry, looked up): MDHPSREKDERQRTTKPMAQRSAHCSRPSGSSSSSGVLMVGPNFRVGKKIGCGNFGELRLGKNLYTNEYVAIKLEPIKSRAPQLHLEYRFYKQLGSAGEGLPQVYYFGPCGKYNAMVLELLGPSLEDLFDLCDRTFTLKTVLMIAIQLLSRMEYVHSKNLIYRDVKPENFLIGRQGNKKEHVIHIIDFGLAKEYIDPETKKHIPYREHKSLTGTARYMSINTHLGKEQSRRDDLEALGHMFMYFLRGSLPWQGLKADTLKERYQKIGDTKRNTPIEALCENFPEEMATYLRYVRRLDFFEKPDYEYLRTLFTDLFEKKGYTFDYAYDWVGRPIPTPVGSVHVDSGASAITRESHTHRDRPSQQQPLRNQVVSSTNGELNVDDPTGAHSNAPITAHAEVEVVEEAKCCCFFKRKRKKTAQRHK
Take `CCCC(=O)Oc1ccc2[nH]c(C(=O)c3cc4ccccc4[nH]3)cc2c1`: the residual activity was 76.1%.

With `CNC(=O)c1cc(Oc2ccc(NC(=O)Nc3ccc(Cl)c(C(F)(F)F)c3)cc2)ccn1`, the residual activity worked out at 102%.

In the case of `Nc1ncnc2c1c(-c1ccc(Oc3ccccc3)cc1)cn2C1CCCC1`, the residual activity was 90.8%.

The next assay addresses CAMK1 (human) (UniProt Q14012). Described as above. The conditions noted are these: compound 0.5 µM; ATP 10 µM.
`CCCC(=O)Oc1ccc2[nH]c(C(=O)c3cc4ccccc4[nH]3)cc2c1`: the residual activity turned out to be 98.8%.

As to `CNC(=O)c1cc(Oc2ccc(NC(=O)Nc3ccc(Cl)c(C(F)(F)F)c3)cc2)ccn1`, the residual activity came to 106%.

As for `Nc1ncnc2c1c(-c1ccc(Oc3ccccc3)cc1)cn2C1CCCC1`, the residual activity is 100%.

The target of a further assay is PRKACG (human) (UniProt P22612). The description is as above. The settings on record: compound 0.5 µM; ATP 10 µM.
PRKACG (human), sequence (P22612 whole entry, looked up): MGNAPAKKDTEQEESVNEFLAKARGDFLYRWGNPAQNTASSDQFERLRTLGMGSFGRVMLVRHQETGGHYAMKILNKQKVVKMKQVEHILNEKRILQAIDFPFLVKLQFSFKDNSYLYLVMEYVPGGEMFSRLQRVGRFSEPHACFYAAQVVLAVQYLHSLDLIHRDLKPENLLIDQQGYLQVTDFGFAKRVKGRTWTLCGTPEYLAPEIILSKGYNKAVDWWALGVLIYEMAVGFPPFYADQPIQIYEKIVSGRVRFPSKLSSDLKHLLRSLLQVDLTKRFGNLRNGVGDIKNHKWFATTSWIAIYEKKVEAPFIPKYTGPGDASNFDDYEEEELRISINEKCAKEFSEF
Consider `CCCC(=O)Oc1ccc2[nH]c(C(=O)c3cc4ccccc4[nH]3)cc2c1`, for which the residual activity was 99.8%.

Take `CNC(=O)c1cc(Oc2ccc(NC(=O)Nc3ccc(Cl)c(C(F)(F)F)c3)cc2)ccn1`: the residual activity was 100%.

Take `Nc1ncnc2c1c(-c1ccc(Oc3ccccc3)cc1)cn2C1CCCC1`: the residual activity was determined as 106%.

Another assay addresses TXK (human) (UniProt P42681). The description is as above. The settings on record: compound 0.5 µM; ATP 10 µM.
`CCCC(=O)Oc1ccc2[nH]c(C(=O)c3cc4ccccc4[nH]3)cc2c1`: the residual activity came out at 99.1%.

For `CNC(=O)c1cc(Oc2ccc(NC(=O)Nc3ccc(Cl)c(C(F)(F)F)c3)cc2)ccn1`, the residual activity was found to be 106%.

In the case of `Nc1ncnc2c1c(-c1ccc(Oc3ccccc3)cc1)cn2C1CCCC1`, the residual activity was 17.3%.

The target of the next assay is HIPK4 (human) (UniProt Q8NE63). The description is as above. The settings on record: compound 0.5 µM; ATP 10 µM.
In the case of `CCCC(=O)Oc1ccc2[nH]c(C(=O)c3cc4ccccc4[nH]3)cc2c1`, the residual activity was determined as 86.3%.

Take `CNC(=O)c1cc(Oc2ccc(NC(=O)Nc3ccc(Cl)c(C(F)(F)F)c3)cc2)ccn1`: the residual activity is 4.85%.

For `Nc1ncnc2c1c(-c1ccc(Oc3ccccc3)cc1)cn2C1CCCC1`, the residual activity came to 102%.

The next assay deals with CAMK4 (human) (UniProt Q16566). Described as above. The settings on record: compound 0.5 µM; ATP 10 µM.
CAMK4 (human), sequence (Q16566 whole entry, looked up): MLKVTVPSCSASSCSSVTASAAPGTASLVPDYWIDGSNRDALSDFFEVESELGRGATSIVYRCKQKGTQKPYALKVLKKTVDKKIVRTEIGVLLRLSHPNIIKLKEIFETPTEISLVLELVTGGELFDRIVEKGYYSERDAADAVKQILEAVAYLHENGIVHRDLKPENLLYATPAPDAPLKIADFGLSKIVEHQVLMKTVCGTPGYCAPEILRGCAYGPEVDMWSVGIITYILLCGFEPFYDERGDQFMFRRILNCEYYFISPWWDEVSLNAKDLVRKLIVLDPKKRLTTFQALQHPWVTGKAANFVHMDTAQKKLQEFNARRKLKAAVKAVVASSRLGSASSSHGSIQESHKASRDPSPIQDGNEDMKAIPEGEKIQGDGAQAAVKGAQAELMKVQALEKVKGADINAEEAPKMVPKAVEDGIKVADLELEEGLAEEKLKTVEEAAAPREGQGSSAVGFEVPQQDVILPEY
`CCCC(=O)Oc1ccc2[nH]c(C(=O)c3cc4ccccc4[nH]3)cc2c1`: the residual activity is 111%.

For `CNC(=O)c1cc(Oc2ccc(NC(=O)Nc3ccc(Cl)c(C(F)(F)F)c3)cc2)ccn1`, the residual activity stood at 107%.

As for `Nc1ncnc2c1c(-c1ccc(Oc3ccccc3)cc1)cn2C1CCCC1`, the residual activity is 101%.

The target in the next assay is EPHA4 (human) (UniProt P54764). The description is as above. The settings on record: compound 0.5 µM; ATP 10 µM.
As to `CCCC(=O)Oc1ccc2[nH]c(C(=O)c3cc4ccccc4[nH]3)cc2c1`, the residual activity was determined as 99.3%.

With `CNC(=O)c1cc(Oc2ccc(NC(=O)Nc3ccc(Cl)c(C(F)(F)F)c3)cc2)ccn1`, the residual activity was 92.5%.

In the case of `Nc1ncnc2c1c(-c1ccc(Oc3ccccc3)cc1)cn2C1CCCC1`, the residual activity amounted to 87.5%.

The target in another assay is MAP3K3 (human) (UniProt Q99759). Described as above. The conditions noted are these: compound 0.5 µM; ATP 10 µM.
Take `CCCC(=O)Oc1ccc2[nH]c(C(=O)c3cc4ccccc4[nH]3)cc2c1`: the residual activity amounted to 91.9%.

On to `CNC(=O)c1cc(Oc2ccc(NC(=O)Nc3ccc(Cl)c(C(F)(F)F)c3)cc2)ccn1`, for which the residual activity stood at 107%.

With `Nc1ncnc2c1c(-c1ccc(Oc3ccccc3)cc1)cn2C1CCCC1`, the residual activity was 71.2%.

A further assay concerns the target MAPK12 (human) (UniProt P53778). Described as above. The conditions noted are these: compound 0.5 µM; ATP 10 µM.
In the case of `CCCC(=O)Oc1ccc2[nH]c(C(=O)c3cc4ccccc4[nH]3)cc2c1`, the residual activity came out at 93.7%.

Take `CNC(=O)c1cc(Oc2ccc(NC(=O)Nc3ccc(Cl)c(C(F)(F)F)c3)cc2)ccn1`: the residual activity was 94.2%.

In the case of `Nc1ncnc2c1c(-c1ccc(Oc3ccccc3)cc1)cn2C1CCCC1`, the residual activity is 97.6%.

Another assay concerns the target TEK (human) (UniProt Q02763). The assay is described as above. The conditions noted are these: compound 0.5 µM; ATP 10 µM.
`CCCC(=O)Oc1ccc2[nH]c(C(=O)c3cc4ccccc4[nH]3)cc2c1`: the residual activity was 100%.

Take `CNC(=O)c1cc(Oc2ccc(NC(=O)Nc3ccc(Cl)c(C(F)(F)F)c3)cc2)ccn1`: the residual activity came to 104%.

For `Nc1ncnc2c1c(-c1ccc(Oc3ccccc3)cc1)cn2C1CCCC1`, the residual activity was determined as 94.3%.

A further assay addresses PIM1 (human) (UniProt P11309). The description is as above. The conditions noted are these: compound 0.5 µM; ATP 10 µM.
Turning to `CCCC(=O)Oc1ccc2[nH]c(C(=O)c3cc4ccccc4[nH]3)cc2c1`, the residual activity was 100%.

On to `CNC(=O)c1cc(Oc2ccc(NC(=O)Nc3ccc(Cl)c(C(F)(F)F)c3)cc2)ccn1`, for which the residual activity stood at 97.1%.

Take `Nc1ncnc2c1c(-c1ccc(Oc3ccccc3)cc1)cn2C1CCCC1`: the residual activity is 92.4%.

For the next assay, the target named is PRKCB1 (human) (UniProt P05771). Described as above. The settings on record: compound 0.5 µM; ATP 10 µM.
Consider `CCCC(=O)Oc1ccc2[nH]c(C(=O)c3cc4ccccc4[nH]3)cc2c1`, for which the residual activity was 97.3%.

As for `CNC(=O)c1cc(Oc2ccc(NC(=O)Nc3ccc(Cl)c(C(F)(F)F)c3)cc2)ccn1`, the residual activity turned out to be 95.1%.

Take `Nc1ncnc2c1c(-c1ccc(Oc3ccccc3)cc1)cn2C1CCCC1`: the residual activity was found to be 92.8%.

The next assay concerns the target RPS6KA1 KD1 KD2 (human) (UniProt Q15418). The assay is described as above. The conditions noted are these: compound 0.5 µM; ATP 10 µM.
With `CCCC(=O)Oc1ccc2[nH]c(C(=O)c3cc4ccccc4[nH]3)cc2c1`, the residual activity came out at 91.3%.

In the case of `CNC(=O)c1cc(Oc2ccc(NC(=O)Nc3ccc(Cl)c(C(F)(F)F)c3)cc2)ccn1`, the residual activity came to 101%.

As for `Nc1ncnc2c1c(-c1ccc(Oc3ccccc3)cc1)cn2C1CCCC1`, the residual activity worked out at 94.2%.

The target of the next assay is CDC42BPB (human) (UniProt Q9Y5S2). The assay is described as above. The settings on record: compound 0.5 µM; ATP 10 µM.
CDC42BPB (human), sequence (Q9Y5S2 whole entry, looked up): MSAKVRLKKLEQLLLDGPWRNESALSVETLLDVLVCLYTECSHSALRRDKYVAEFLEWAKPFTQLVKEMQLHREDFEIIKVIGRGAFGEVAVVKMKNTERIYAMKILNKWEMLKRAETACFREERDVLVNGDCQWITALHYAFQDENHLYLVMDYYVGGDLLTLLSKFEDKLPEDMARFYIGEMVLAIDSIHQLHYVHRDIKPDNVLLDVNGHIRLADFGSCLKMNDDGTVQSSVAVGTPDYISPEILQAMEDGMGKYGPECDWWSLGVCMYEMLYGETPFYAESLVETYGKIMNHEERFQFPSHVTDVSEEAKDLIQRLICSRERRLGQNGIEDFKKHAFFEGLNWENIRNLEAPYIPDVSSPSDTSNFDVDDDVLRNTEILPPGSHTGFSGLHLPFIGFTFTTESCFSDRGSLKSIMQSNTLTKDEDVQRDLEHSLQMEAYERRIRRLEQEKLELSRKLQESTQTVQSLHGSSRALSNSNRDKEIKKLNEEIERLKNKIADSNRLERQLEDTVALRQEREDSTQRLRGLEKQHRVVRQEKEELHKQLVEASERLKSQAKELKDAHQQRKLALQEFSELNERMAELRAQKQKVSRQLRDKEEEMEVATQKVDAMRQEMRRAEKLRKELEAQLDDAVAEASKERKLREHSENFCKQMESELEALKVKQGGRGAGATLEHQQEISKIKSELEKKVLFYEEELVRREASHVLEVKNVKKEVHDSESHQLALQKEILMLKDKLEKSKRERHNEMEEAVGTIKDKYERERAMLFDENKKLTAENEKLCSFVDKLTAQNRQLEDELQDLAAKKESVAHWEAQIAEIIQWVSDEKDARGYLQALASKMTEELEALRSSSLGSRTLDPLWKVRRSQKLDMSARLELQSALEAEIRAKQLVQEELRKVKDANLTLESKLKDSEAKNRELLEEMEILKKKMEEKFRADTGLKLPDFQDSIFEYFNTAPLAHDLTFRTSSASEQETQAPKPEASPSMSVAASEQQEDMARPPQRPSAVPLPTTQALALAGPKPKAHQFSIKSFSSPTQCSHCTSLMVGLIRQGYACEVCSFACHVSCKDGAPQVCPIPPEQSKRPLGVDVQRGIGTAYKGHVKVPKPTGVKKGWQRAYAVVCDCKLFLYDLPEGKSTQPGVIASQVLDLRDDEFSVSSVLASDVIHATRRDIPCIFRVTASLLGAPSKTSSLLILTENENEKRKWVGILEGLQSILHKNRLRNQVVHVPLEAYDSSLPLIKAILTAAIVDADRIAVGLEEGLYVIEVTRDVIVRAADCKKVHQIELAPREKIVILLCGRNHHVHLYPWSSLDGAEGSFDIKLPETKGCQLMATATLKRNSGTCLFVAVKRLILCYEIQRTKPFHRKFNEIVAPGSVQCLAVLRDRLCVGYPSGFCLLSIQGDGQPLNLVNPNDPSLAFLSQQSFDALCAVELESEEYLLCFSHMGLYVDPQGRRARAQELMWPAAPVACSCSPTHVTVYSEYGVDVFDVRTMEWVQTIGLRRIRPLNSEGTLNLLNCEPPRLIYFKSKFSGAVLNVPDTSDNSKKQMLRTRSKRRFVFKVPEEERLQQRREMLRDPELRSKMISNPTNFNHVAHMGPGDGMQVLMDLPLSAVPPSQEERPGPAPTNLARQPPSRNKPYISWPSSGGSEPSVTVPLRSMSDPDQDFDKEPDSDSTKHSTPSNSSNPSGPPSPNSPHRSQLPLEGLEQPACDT
On to `CCCC(=O)Oc1ccc2[nH]c(C(=O)c3cc4ccccc4[nH]3)cc2c1`, for which the residual activity came out at 99.5%.

`CNC(=O)c1cc(Oc2ccc(NC(=O)Nc3ccc(Cl)c(C(F)(F)F)c3)cc2)ccn1`: the residual activity came out at 102%.

`Nc1ncnc2c1c(-c1ccc(Oc3ccccc3)cc1)cn2C1CCCC1`: the residual activity worked out at 107%.

For a further assay, the target named is RPS6KA5 KD2 (human) (UniProt O75582). The assay is described as above. The settings on record: compound 0.5 µM; ATP 10 µM.
As for `CCCC(=O)Oc1ccc2[nH]c(C(=O)c3cc4ccccc4[nH]3)cc2c1`, the residual activity is 95.3%.

For `CNC(=O)c1cc(Oc2ccc(NC(=O)Nc3ccc(Cl)c(C(F)(F)F)c3)cc2)ccn1`, the residual activity was determined as 102%.

With `Nc1ncnc2c1c(-c1ccc(Oc3ccccc3)cc1)cn2C1CCCC1`, the residual activity turned out to be 90.5%.

The target in the next assay is FGFR4 (human) (UniProt P22455). Described as above. The conditions noted are these: compound 0.5 µM; ATP 10 µM.
For `CCCC(=O)Oc1ccc2[nH]c(C(=O)c3cc4ccccc4[nH]3)cc2c1`, the residual activity was determined as 90.9%.

Take `CNC(=O)c1cc(Oc2ccc(NC(=O)Nc3ccc(Cl)c(C(F)(F)F)c3)cc2)ccn1`: the residual activity turned out to be 104%.

On to `Nc1ncnc2c1c(-c1ccc(Oc3ccccc3)cc1)cn2C1CCCC1`, for which the residual activity worked out at 98%.

The target of the next assay is WNK3 (human) (UniProt Q9BYP7). The description is as above. The conditions noted are these: compound 0.5 µM; ATP 10 µM.
Take `CCCC(=O)Oc1ccc2[nH]c(C(=O)c3cc4ccccc4[nH]3)cc2c1`: the residual activity was found to be 101%.

Turning to `CNC(=O)c1cc(Oc2ccc(NC(=O)Nc3ccc(Cl)c(C(F)(F)F)c3)cc2)ccn1`, the residual activity was 99.2%.

For the compound `Nc1ncnc2c1c(-c1ccc(Oc3ccccc3)cc1)cn2C1CCCC1`, the residual activity came out at 85.2%.

The next assay concerns the target CHEK2 (human) (UniProt O96017). Described as above. The conditions noted are these: compound 0.5 µM; ATP 10 µM.
As for `CCCC(=O)Oc1ccc2[nH]c(C(=O)c3cc4ccccc4[nH]3)cc2c1`, the residual activity is 99%.

With `CNC(=O)c1cc(Oc2ccc(NC(=O)Nc3ccc(Cl)c(C(F)(F)F)c3)cc2)ccn1`, the residual activity was found to be 102%.

`Nc1ncnc2c1c(-c1ccc(Oc3ccccc3)cc1)cn2C1CCCC1`: the residual activity turned out to be 76.6%.

The next assay concerns the target MAPK11 (human) (UniProt Q15759). The assay is described as above. The conditions noted are these: compound 0.5 µM; ATP 10 µM.
For `CCCC(=O)Oc1ccc2[nH]c(C(=O)c3cc4ccccc4[nH]3)cc2c1`, the residual activity worked out at 87.7%.

`CNC(=O)c1cc(Oc2ccc(NC(=O)Nc3ccc(Cl)c(C(F)(F)F)c3)cc2)ccn1`: the residual activity was 46.9%.

Regarding `Nc1ncnc2c1c(-c1ccc(Oc3ccccc3)cc1)cn2C1CCCC1`, the residual activity was 106%.

A further assay has as its target ACVRL1 (human) (UniProt P37023). Described as above. The conditions noted are these: compound 0.5 µM; ATP 10 µM.
Consider `CCCC(=O)Oc1ccc2[nH]c(C(=O)c3cc4ccccc4[nH]3)cc2c1`, for which the residual activity came to 90.9%.

As for `CNC(=O)c1cc(Oc2ccc(NC(=O)Nc3ccc(Cl)c(C(F)(F)F)c3)cc2)ccn1`, the residual activity is 104%.

As to `Nc1ncnc2c1c(-c1ccc(Oc3ccccc3)cc1)cn2C1CCCC1`, the residual activity was determined as 95.9%.

In the next assay the target is DCLK2 (human) (UniProt Q8N568). The description is as above. The settings on record: compound 0.5 µM; ATP 10 µM.
For the compound `CCCC(=O)Oc1ccc2[nH]c(C(=O)c3cc4ccccc4[nH]3)cc2c1`, the residual activity was 89.2%.

With `CNC(=O)c1cc(Oc2ccc(NC(=O)Nc3ccc(Cl)c(C(F)(F)F)c3)cc2)ccn1`, the residual activity is 102%.

For the compound `Nc1ncnc2c1c(-c1ccc(Oc3ccccc3)cc1)cn2C1CCCC1`, the residual activity was found to be 99.5%.

By residual activity is commonly meant the signal under treatment as a percentage of the control signal.
